Laboratory results taken from patent US12138256B2, “Treatment of cardiopulmonary disorders” (Bayer Aktiengesellschaft, priority 2021, dated 2024).

Tested on: sGC (cGMP)
Assay: Phase I, healthy male subjects, 14 days inhalation: cGMP concentration (C-4.2)
Type: in vivo, human
Conditions: for cGMP change from baseline / cGMP concentration, mean +/− SD: 1000 μg
Method: Healthy white male subjects, aged 18 to 45 years and with a body mass index (BMI) above/equal 18.5 and below/equal 29.9 kg/m2 were treated in a clinical pharmacological phase I study for 14 days with inhaled once daily doses of 1000 μg (nominal dose) or Placebo of dry powder of example 4. The subjects inhaled the drug powder from capsules (see under D-1, e.g. tables 17 and 20) inserted into a handheld inhalation device by one deep inhalative breath into the deep parts of the lung. The intended substantial reduction of increased blood pressure in the central pulmonary blood vessels cannot be evaluated in subjects without pathophysiological impairment of lung function. As surrogate for drug concentration in the lung, plasma concentrations over time have been analysed. […] Drug activity/target engagement in healthy men was controlled in the healthy subjects by analysing blood samples for cGMP. Results are shown in as mean in table C4.2.1 and change to baseline in FIG. 76 and table C4.2.2.

[1] = −0 D 09 H 00 M (pretreatment day)
[2] = −0 D 12 H 00 M (pretreatment day)
[3] = −0 D 16 H 00 M (pretreatment day)
[4] = −0 D 18 H 00 M (pretreatment day)
[5] = −0 D 20 H 00 M (pretreatment day)
[6] = −0 D 22 H 00 M (pretreatment day)

O=C(O)c1ccc(CCN(CCc2ccccc2OCc2ccc(-c3ccc(C(F)(F)F)cc3)cc2Cl)[C@H]2CCCc3nc(C(=O)O)ccc32)cc1 [example 4, (5S)-{[2-(4-Carboxyphenyl)ethyl][2-(2-{[3-chloro-4′-(trifluoromethyl)biphenyl-4-yl]methoxy}phenyl)-ethyl]amino}-5,6,7,8-tetrahydroquinoline-2-carboxylic acid]
time until maximum cGMP values were reached (1000 μg once daily): 7 days
time until steady state of cGMP concentration (1000 μg once daily): ≤ 11 days
cGMP change from baseline (0 D 02 H 00 M): 4840 pM
cGMP concentration, mean +/− SD (0 D 02 H 00 M): 9170 pM
cGMP change from baseline (0 D 04 H 00 M): 7290 pM
cGMP concentration, mean +/− SD (0 D 04 H 00 M): 11600 pM
cGMP change from baseline (0 D 06 H 00 M): 9950 pM
cGMP concentration, mean +/− SD (0 D 06 H 00 M): 14300 pM
cGMP change from baseline (0 D 08 H 00 M): 10600 pM
cGMP concentration, mean +/− SD (0 D 08 H 00 M): 14900 pM
cGMP change from baseline (0 D 12 H 00 M): 7530 pM
cGMP concentration, mean +/− SD (0 D 12 H 00 M): 11800 pM
cGMP change from baseline (0 D 15 H 00 M): 6740 pM
cGMP concentration, mean +/− SD (0 D 15 H 00 M): 11100 pM
cGMP change from baseline (1 D 00 H 00 M): 2980 pM
cGMP concentration, mean +/− SD (1 D 00 H 00 M): 7310 pM
cGMP change from baseline (2 D 00 H 00 M): 4550 pM
cGMP concentration, mean +/− SD (2 D 00 H 00 M): 8880 pM
cGMP change from baseline (2 D 03 H 00 M): 13000 pM
cGMP concentration, mean +/− SD (2 D 03 H 00 M): 17300 pM
cGMP change from baseline (2 D 08 H 00 M): 16400 pM
cGMP concentration, mean +/− SD (2 D 08 H 00 M): 20800 pM
cGMP change from baseline (2 D 12 H 00 M): 12600 pM
cGMP concentration, mean +/− SD (2 D 12 H 00 M): 16900 pM
cGMP change from baseline (3 D 00 H 00 M): 5160 pM
cGMP concentration, mean +/− SD (3 D 00 H 00 M): 9490 pM
cGMP change from baseline (4 D 00 H 00 M): 6360 pM
cGMP concentration, mean +/− SD (4 D 00 H 00 M): 10700 pM
cGMP change from baseline (5 D 00 H 00 M): 5920 pM
cGMP concentration, mean +/− SD (5 D 00 H 00 M): 10300 pM
cGMP change from baseline (6 D 00 H 00 M): 5090 pM
cGMP concentration, mean +/− SD (6 D 00 H 00 M): 9420 pM
cGMP change from baseline (6 D 03 H 00 M): 13400 pM
cGMP concentration, mean +/− SD (6 D 03 H 00 M): 17700 pM
cGMP change from baseline (6 D 08 H 00 M): 20100 pM
cGMP concentration, mean +/− SD (6 D 08 H 00 M): 24500 pM
cGMP change from baseline (6 D 12 H 00 M): 13900 pM
cGMP concentration, mean +/− SD (6 D 12 H 00 M): 18200 pM
cGMP change from baseline (7 D 00 H 00 M): 6180 pM
cGMP concentration, mean +/− SD (7 D 00 H 00 M): 10500 pM
cGMP change from baseline (8 D 00 H 00 M): 6200 pM
cGMP concentration, mean +/− SD (8 D 00 H 00 M): 10500 pM
cGMP change from baseline (9 D 00 H 00 M): 6580 pM
cGMP concentration, mean +/− SD (9 D 00 H 00 M): 10900 pM
cGMP change from baseline (10 D 00 H 00 M): 6450 pM
cGMP concentration, mean +/− SD (10 D 00 H 00 M): 10800 pM
cGMP change from baseline (10 D 03 H 00 M): 12700 pM
cGMP concentration, mean +/− SD (10 D 03 H 00 M): 17100 pM
cGMP change from baseline (10 D 08 H 00 M): 17500 pM
cGMP concentration, mean +/− SD (10 D 08 H 00 M): 21900 pM
cGMP change from baseline (10 D 12 H 00 M): 13000 pM
cGMP concentration, mean +/− SD (10 D 12 H 00 M): 17300 pM
cGMP change from baseline (11 D 00 H 00 M): 6940 pM
cGMP concentration, mean +/− SD (11 D 00 H 00 M): 11300 pM
cGMP change from baseline (12 D 00 H 00 M): 8060 pM
cGMP concentration, mean +/− SD (12 D 00 H 00 M): 12400 pM
cGMP change from baseline (12 D 22 H 00 M): 6950 pM
cGMP concentration, mean +/− SD (12 D 22 H 00 M): 11300 pM
cGMP change from baseline (13 D 02 H 00 M): 9120 pM
cGMP concentration, mean +/− SD (13 D 02 H 00 M): 13400 pM
cGMP change from baseline (13 D 04 H 00 M): 12900 pM
cGMP concentration, mean +/− SD (13 D 04 H 00 M): 17300 pM
cGMP change from baseline (13 D 06 H 00 M): 17000 pM
cGMP concentration, mean +/− SD (13 D 06 H 00 M): 21400 pM
cGMP change from baseline (13 D 08 H 00 M): 17700 pM
cGMP concentration, mean +/− SD (13 D 08 H 00 M): 22000 pM
cGMP change from baseline (13 D 12 H 00 M): 12900 pM
cGMP concentration, mean +/− SD (13 D 12 H 00 M): 17200 pM
cGMP change from baseline (13 D 15 H 00 M): 12100 pM
cGMP concentration, mean +/− SD (13 D 15 H 00 M): 16400 pM
cGMP change from baseline (14 D 00 H 00 M): 5410 pM
cGMP concentration, mean +/− SD (14 D 00 H 00 M): 9740 pM
cGMP change from baseline (15 D 00 H 00 M): 2520 pM
cGMP concentration, mean +/− SD (15 D 00 H 00 M): 6850 pM
cGMP change from baseline (15 D 12 H 00 M): 3040 pM
cGMP concentration, mean +/− SD (15 D 12 H 00 M): 7370 pM
cGMP change from baseline (16 D 00 H 00 M): 2000 pM
cGMP concentration, mean +/− SD (16 D 00 H 00 M): 6330 pM
cGMP change from baseline (16 D 12 H 00 M): 2410 pM
cGMP concentration, mean +/− SD (16 D 12 H 00 M): 6740 pM
cGMP change from baseline (17 D 00 H 00 M): 400 pM
cGMP concentration, mean +/− SD (17 D 00 H 00 M): 4730 pM
cGMP change from baseline (20 D 00 H 00 M): 1220 pM
cGMP concentration, mean +/− SD (20 D 00 H 00 M): 5520 pM
cGMP change from baseline (FOLLOW-UP): 1520 pM
cGMP concentration, mean +/− SD (FOLLOW-UP): 5850 pM
cGMP concentration, mean +/− SD (−0 D 02 H 00 M (prior to first inhalation)): 4330 pM
cGMP change from baseline [1]: 224 pM
cGMP concentration, mean +/− SD [1]: 5490 pM
cGMP change from baseline [2]: 306 pM
cGMP concentration, mean +/− SD [2]: 5570 pM
cGMP change from baseline [3]: 676 pM
cGMP concentration, mean +/− SD [3]: 5940 pM
cGMP change from baseline [4]: −252.9 +/− 1345.9
cGMP concentration, mean +/− SD [4]: 5010 pM
cGMP change from baseline [5]: −952.9 +/− 1984.7
cGMP concentration, mean +/− SD [5]: 4310 pM
cGMP change from baseline [6]: −100.0 +/− 1403.1
cGMP concentration, mean +/− SD [6]: 5160 pM
cGMP concentration, mean +/− SD (−1 D 02 H 00 M (pretreatment day)): 5260 pM
